Experimental data from PubChem BioAssay AID2605 (Johns Hopkins Ion Channel Center, 2010).

Biological target: Voltage-gated inwardly rectifying potassium channel KCNH2 (Homo sapiens) (UniProt Q12809)
Test: hERG rescue from dofetilide block, confirmation, manual patch clamp, HEK293 cells (AID 2605)
Details: at 10 µM, stronger effect = higher value; for potentiation: measured here: hERG potentiation without dofetilide

Chain of Voltage-gated inwardly rectifying potassium channel KCNH2 (Homo sapiens) (Q12809 whole entry, looked up): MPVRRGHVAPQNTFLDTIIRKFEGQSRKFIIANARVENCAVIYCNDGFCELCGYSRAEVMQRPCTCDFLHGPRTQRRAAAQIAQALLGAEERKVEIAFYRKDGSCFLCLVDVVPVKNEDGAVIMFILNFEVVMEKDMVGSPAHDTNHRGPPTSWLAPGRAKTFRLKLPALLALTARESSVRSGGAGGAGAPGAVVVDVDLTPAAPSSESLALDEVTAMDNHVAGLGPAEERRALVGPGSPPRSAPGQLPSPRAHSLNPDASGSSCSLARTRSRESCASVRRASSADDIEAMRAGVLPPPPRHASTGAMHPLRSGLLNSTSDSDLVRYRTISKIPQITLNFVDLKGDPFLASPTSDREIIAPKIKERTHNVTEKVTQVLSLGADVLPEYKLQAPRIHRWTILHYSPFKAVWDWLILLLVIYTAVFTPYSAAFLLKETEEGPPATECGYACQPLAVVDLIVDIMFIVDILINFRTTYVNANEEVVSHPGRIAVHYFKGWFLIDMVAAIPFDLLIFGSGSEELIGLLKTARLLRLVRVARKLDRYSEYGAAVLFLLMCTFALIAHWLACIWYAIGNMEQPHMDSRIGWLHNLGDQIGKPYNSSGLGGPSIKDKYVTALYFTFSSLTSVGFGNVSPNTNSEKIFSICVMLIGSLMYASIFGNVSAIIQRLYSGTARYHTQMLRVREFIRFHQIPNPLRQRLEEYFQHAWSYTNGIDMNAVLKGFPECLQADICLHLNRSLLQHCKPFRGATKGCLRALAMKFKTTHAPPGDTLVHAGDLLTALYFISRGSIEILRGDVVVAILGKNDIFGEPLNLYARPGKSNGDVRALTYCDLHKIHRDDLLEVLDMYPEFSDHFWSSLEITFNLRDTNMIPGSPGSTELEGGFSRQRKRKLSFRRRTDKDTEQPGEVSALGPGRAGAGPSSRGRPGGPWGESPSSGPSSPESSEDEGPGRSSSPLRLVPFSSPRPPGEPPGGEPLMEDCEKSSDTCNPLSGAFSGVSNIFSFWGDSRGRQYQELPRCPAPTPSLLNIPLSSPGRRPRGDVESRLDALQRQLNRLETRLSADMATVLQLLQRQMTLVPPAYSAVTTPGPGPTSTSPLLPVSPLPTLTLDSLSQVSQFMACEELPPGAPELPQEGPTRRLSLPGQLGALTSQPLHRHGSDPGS

Cc1cccc(NC(=S)NC(=O)c2cc(-c3ccccc3)nc3ccccc23)c1
current remaining with dofetilide: 32.2%
potentiation: 107%

Cc1ccc(NC(=S)c2nc3ccccc3s2)cc1
current remaining with dofetilide: 23.9%
potentiation: 107%

CCC1CCCCN1C(=S)NC(=O)c1cccs1 (stereo not given)
current remaining with dofetilide: 46.5%
potentiation: 140%

O=C1C2CC=CCC2C(=O)N1c1ccc(Cc2ccncc2)cc1 (stereo not given)
current remaining with dofetilide: 33.8%
potentiation: 107%

O=C(NC(=S)Nc1ccccc1)c1cc(-c2ccccc2)nc2ccccc12
current remaining with dofetilide: 31%
potentiation: 119%
